Measured values published in ChEMBL document CHEMBL6121048 (J Med Chem, 2025).
Active and inactive are the calls of the source. The rule behind the calls is not given here.

Assays:
[1] = target: Glutamate NMDA receptor; Grin1/Grin2a (Rattus norvegicus, UniProt P35439+Q00959); assay: Partial agonist activity at recombinant rat GluN1/GluN2A NMDA receptor expressed in xenopus laevis oocytes in presence of L-glutamate by two-electrode voltage-clamp method; format: cell-based
[2] = target: Glutamate NMDA receptor; Grin1/Grin2a (Rattus norvegicus) (UniProt P35439+Q00959); assay: Partial agonist activity at recombinant rat GluN1/GluN2A NMDA receptor expressed in xenopus laevis oocytes by measuring maximum response by two-electrode voltage-clamp method relative to glycine; format: cell-based; conditions: filed as partial agonist
[3] = target: Glutamate NMDA receptor; Grin1/Grin2c (Rattus norvegicus) (UniProt P35439+Q00961); assay: Agonist activity at recombinant rat GluN1/GluN2C NMDA receptor expressed in xenopus laevis oocytes by measuring maximum response by two-electrode voltage-clamp method relative to glycine; format: cell-based; conditions: filed as agonist
[4] = target: Ionotropic glutamate receptor NMDA 1/2D (Rattus norvegicus) (UniProt P35439+Q62645); assay: Partial agonist activity at recombinant rat GluN1/GluN2D NMDA receptor expressed in xenopus laevis oocytes by measuring maximum response by two-electrode voltage-clamp method relative to glycine; format: cell-based
[5] = target: Glutamate NMDA receptor; Grin1/Grin2c (Rattus norvegicus, UniProt P35439+Q00961); assay: Agonist activity at recombinant rat GluN1/GluN2C NMDA receptor expressed in xenopus laevis oocytes in presence of L-glutamate by two-electrode voltage-clamp method; format: cell-based
[6] = target: Ionotropic glutamate receptor NMDA 1/2D (Rattus norvegicus, UniProt P35439+Q62645); assay: Partial agonist activity at recombinant rat GluN1/GluN2D NMDA receptor expressed in xenopus laevis oocytes in presence of L-glutamate by two-electrode voltage-clamp method; format: cell-based
[7] = target: T1, Glutamate NMDA receptor; Grin1/Grin2b (Rattus norvegicus) (UniProt P35439+Q00960); assay: Agonist activity at recombinant rat GluN1/GluN2B NMDA receptor expressed in xenopus laevis oocytes at 30 uM by two-electrode voltage-clamp method relative to control; format: cell-based
[8] = target: T1, Glutamate NMDA receptor; Grin1/Grin2b (Rattus norvegicus); assay: Agonist activity at recombinant rat GluN1/GluN2B NMDA receptor expressed in xenopus laevis oocytes at 3 uM by two-electrode voltage-clamp method relative to control; format: cell-based
[9] = Metabolic stability in human liver microsomes assessed as half life at 1 uM incubated for 5 mins in presence of NADPH by LC-MS/MS analysis; format: ADME, Microsome
[10] = Apparent permeability across apical to basolateral side in dog MDR1-deficient MDCK cells expressing human MDR1 at 3 uM by LC-MS/MS analysis; format: ADME, cell-based, Canis lupus familiaris
[11] = Apparent permeability across basolateral to apical side in dog MDR1-deficient MDCK cells expressing human MDR1 at 3 uM by LC-MS/MS analysis; format: ADME, cell-based, Canis lupus familiaris
[12] = Efflux ratio of apparent permeability across basolateral to apical over apical to basolateral side in dog MDR1-deficient MDCK cells expressing human MDR1 at 3 uM by LC-MS/MS analysis; format: ADME, cell-based, Canis lupus familiaris
[13] = target: T1, Glutamate NMDA receptor; Grin1/Grin2b (Rattus norvegicus); assay: Agonist activity at recombinant rat GluN1/GluN2B NMDA receptor expressed in xenopus laevis oocytes at 10 uM by two-electrode voltage-clamp method relative to control; format: cell-based
Rattus norvegicus [14] = species on record: Rattus norvegicus; assay: Selectivity ratio of EC50 for partial agonist activity at recombinant rat GluN1/GluN2A NMDA receptor expressed in xenopus laevis oocytes to EC50 for agonist activity at recombinant rat GluN1/GluN2C NMDA receptor expressed in xenopus laevis oocytes; format: cell-based
Rattus norvegicus [15] = species on record: Rattus norvegicus; assay: Selectivity ratio of EC50 for partial agonist activity at recombinant rat GluN1/GluN2D NMDA receptor expressed in xenopus laevis oocytes to EC50 for agonist activity at recombinant rat GluN1/GluN2C NMDA receptor expressed in xenopus laevis oocytes; format: cell-based
Rattus norvegicus [16] = species on record: Rattus norvegicus; assay: Agonist activity at recombinant rat GluN1 Y692L mutant receptor expressed in xenopus laevis oocytes in presence of L-glutamate by two-electrode voltage-clamp method; format: cell-based
Rattus norvegicus [17] = species on record: Rattus norvegicus; assay: Agonist activity at recombinant rat GluN1 F754L mutant receptor expressed in xenopus laevis oocytes in presence of L-glutamate by two-electrode voltage-clamp method; format: cell-based
[18] = Selectivity ratio of EC50 for wild type GluN1/GluN2C receptor to EC50 for GluN1 V689I/2C receptor expressed in xenopus laevis oocytes; format: cell-based
Rattus norvegicus [19] = species on record: Rattus norvegicus; assay: Agonist activity at recombinant rat GluN1 V689I mutant receptor expressed in xenopus laevis oocytes assessed as fold reduction by two-electrode voltage-clamp method; format: cell-based; conditions: filed as agonist
[20] = Selectivity ratio of EC50 for wild type GluN1/2C receptor to EC50 for GluN1 S688A/2C mutant receptor expressed in xenopus laevis oocytes; format: cell-based
[21] = target: T1, Glutamate NMDA receptor; Grin1/Grin2b (Rattus norvegicus); assay: Agonist activity at recombinant rat GluN1/GluN2B NMDA receptor expressed in xenopus laevis oocytes at 1 uM by two-electrode voltage-clamp method relative to control; format: cell-based

Structure (SMILES) | EC50 [1] | Rmax [2] | Rmax [3] | EC50 [5] | EC50 [6] | Activity [7] | Rmax [4] | t1/2 [9] | Papp [10] | Papp [11] | Ratio [12] | also measured
N[C@H](CNC(=O)c1ccc(-c2cccc(F)c2F)s1)C(=O)O | 1990 nM | 62% | 321% | 930 nM | 3520 nM | < 5% |  |  |  |  |  | Rmax ([4]; filed as partial agonist): 41%
COc1ccc(F)cc1-c1ccc(C(=O)NC[C@@H](N)C(=O)O)s1 | 1070 nM | 83% | 306% | 740 nM | 1450 nM | < 5% | 23% |  |  |  |  | 
N[C@H](CNC(=O)c1ccc(-c2cccc3ccccc23)s1)C(=O)O | 102 nM | 59% | 116% | 133 nM | 303 nM |  | 34% |  |  |  |  | Activity [8]: < 5%
CC(C)OC(=O)[C@H](N)CNC(=O)c1ccc(-c2ccccc2Br)s1 |  |  |  |  |  |  |  | 0.367 h | 107.4 ×10⁻⁶ cm/s | 89.6 ×10⁻⁶ cm/s | 0.83 | 
N[C@H](CO)C(=O)O |  | 102% | 116% |  |  |  |  |  |  |  |  | Rmax ([4]; filed as partial agonist): 93%
N[C@H](CNC(=O)c1cc(Br)c(-c2ccccc2F)s1)C(=O)O | 210 nM | 54% | 864% | 34 nM | 240 nM |  |  | > 2 h | 1.6 ×10⁻⁶ cm/s | 2.2 ×10⁻⁶ cm/s | 1.4 | Rmax ([4]; filed as partial agonist): 44%; Activity [13]: < 5%; Ratio EC50 (Rattus norvegicus [14]): 6.2; Ratio EC50 (Rattus norvegicus [15]): 7.1; Activity (Rattus norvegicus [16]; filed as agonist): Active; Compound Shows Reduced Efficacy Compared To Wild-Type Glun1/2C; Activity (Rattus norvegicus [17]; filed as agonist): Active; Compound Shows Reduced Efficacy Compared To Wild-Type Glun1/2C; Ratio EC50 [18]: 2.6; fold change (FC) (Rattus norvegicus [19]): 2; Ratio EC50 [20]: 1.9
Cc1cc(C(=O)NC[C@@H](N)C(=O)O)sc1-c1ccccc1Br | 51 nM | 75% | 267% | 25 nM | 120 nM |  | 30% |  |  |  |  | Activity [21]: < 5%
CCc1ccccc1-c1cccc2[nH]c(C(=O)NC[C@@H](N)C(=O)O)cc12 |  |  |  |  |  |  |  | > 2 h | 0.81 ×10⁻⁶ cm/s | 7.4 ×10⁻⁶ cm/s | 9.2 | 
N[C@H](CNC(=O)c1ccc(-c2ccccc2F)s1)C(=O)O | 880 nM | 63% | 410% | 230 nM | 980 nM | < 5% |  |  |  |  |  | Rmax ([4]; filed as partial agonist): 45%
N[C@H](CNC(=O)c1ccc(-c2ccccc2C(F)(F)F)s1)C(=O)O | 150 nM | 62% | 158% | 88 nM | 200 nM | < 5% | 24% |  |  |  |  | 
N[C@H](CNC(=O)c1ccc(-c2cccc(F)c2)s1)C(=O)O | 3730 nM | 61% | 390% | 1880 nM | 5580 nM | < 5% |  |  |  |  |  | Rmax ([4]; filed as partial agonist): 42%
N[C@H](CNC(=O)c1ccc(-c2ccccc2Br)s1)C(=O)O | 74 nM | 80% | 156% | 38 nM | 72 nM | < 5% | 28% | > 2 h | 0.53 ×10⁻⁶ cm/s | 0.88 ×10⁻⁶ cm/s | 1.6 | Activity (Rattus norvegicus [16]): inactive; Activity (Rattus norvegicus [17]): inactive; Ratio EC50 [18]: 2.9; fold change (FC) (Rattus norvegicus [19]): 1.5; Ratio EC50 [20]: 1.4
COc1cccc(F)c1-c1ccc(C(=O)NC[C@@H](N)C(=O)O)s1 | 290 nM | 67% | 179% | 110 nM | 180 nM |  | 29% |  |  |  |  | Activity [13]: < 5%
CCc1ccccc1-c1ccc(C(=O)NC[C@@H](N)C(=O)O)s1 | 57 nM | 77% | 234% | 41 nM | 81 nM |  | 32% | > 2 h | 2 ×10⁻⁶ cm/s | 1.4 ×10⁻⁶ cm/s |  | Activity [8]: < 5%; Activity (Rattus norvegicus [16]): inactive; Activity (Rattus norvegicus [17]): inactive; fold change (FC) (Rattus norvegicus [19]): 1.3
N[C@H](CNC(=O)c1cc(Br)c(-c2ccccc2Br)s1)C(=O)O | 18 nM | 58% | 430% | 3 nM | 16 nM |  | 30% | > 2 h | 0.9 ×10⁻⁶ cm/s | 7.4 ×10⁻⁶ cm/s | 8.2 | Activity [21]: < 5%; Ratio EC50 (Rattus norvegicus [14]): 6.2; Ratio EC50 (Rattus norvegicus [15]): 5.5
COc1ccccc1-c1ccc(C(=O)NC[C@@H](N)C(=O)O)s1 | 1280 nM | 90% | 293% | 660 nM | 1290 nM | < 5% | 24% |  |  |  |  | 
COC(=O)c1ccccc1-c1c2ccc(=N)cc-2oc2cc(N)ccc12.Cl [RHODAMINE123] |  |  |  |  |  |  |  |  | 0.77 ×10⁻⁶ cm/s | 5.7 ×10⁻⁶ cm/s | 7.5 | 
